Values quoted from earlier work as cited in US20130236544A1, “STABLE PHARMACEUTICAL COMPOSITIONS OF FESOTERODINE” (DR. REDDY'S LABORATORIES LTD., priority 2012, published 2013).
Counter-ions that a name gives are not always drawn.

solubility in water: freely soluble in water
SMILES: CC(C)C(=O)Oc1ccc(CO)cc1[C@H](CCN(C(C)C)C(C)C)c1ccccc1 [Fesoterodine fumarate, isobutyric acid 2-((R)-3-diisopropylammonium-1-phenylpropyl)-4-(hydroxymethyl) phenyl ester hydrogen fumarate]
